For experiment [1], the target named is T1, human RORγt (Ligand Binding Domain) (Homo sapiens, UniProt P51449).
T1 construct: purchased Crelux (Planegg, Germany) batch no PC5032-1
T1 sequence (P51449 269-508 limits assumed): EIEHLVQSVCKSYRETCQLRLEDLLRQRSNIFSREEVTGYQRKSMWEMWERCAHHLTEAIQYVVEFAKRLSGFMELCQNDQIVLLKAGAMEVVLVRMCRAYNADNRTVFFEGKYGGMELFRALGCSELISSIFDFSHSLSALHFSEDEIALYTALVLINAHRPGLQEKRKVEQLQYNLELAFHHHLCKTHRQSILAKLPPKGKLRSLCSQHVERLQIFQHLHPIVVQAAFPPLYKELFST
The experiment is described as follows: Fluorescence Polarization (FP) Assay. Conditions: 100 nM human RORγt LBD, 25 nM TAMRA probe, values are activity range bounds. Put shortly: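 In vitro fluorescence polarization binding assay on the RORγt ligand-binding pocket. A TAMRA-labelled RORγt ligand probe (MW 910 g/mol) was used, with DMSO as negative control.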
(In general: In fluorescence polarisation assays a small probe gives low polarisation when free and higher when bound to something large.)

Experiment [2] has as its target T2, ligand binding domain of human RORγ (Homo sapiens, UniProt P51449).
T2 construct: host or cells: HEK293t
T2 sequence (P51449 269-508 limits assumed): T1 sequence (P51449 269-508 limits assumed)
Nature of the experiment: RORγ Reporter Assay (Gal4). It is filed as cell-based. The following applies: for inhibition at 1 µM: HEK-293T, 1 μM test compound, HEK293t RORγ reporter cells, 24 hour, read-out: Gal4 activity range @ 1 μM (% inhibition); for Gal4 activity range @ 0.1 μM (% inhibition): RORγ Reporter Assay (Gal4), HEK293t reporter cells, compound at 0.1 μM, values are activity range bounds. A digest of the protocol:
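HEK293t cells expressing Gal4 DBD–human RORγ LBD hybrid with Gal4-UAS firefly luciferase reporter; compounds at final 1,000 nM and 100 nM (0.1% DMSO), triplicate, medium with 10% charcoal-stripped FBS, 24 h at 37 °C. Luminescence read; percent reduction of RORγ activity calculated versus vehicle-only wells.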
(In general: A reporter such as luciferase makes a cellular process visible.)

One may read the IC50 as the concentration needed to halve the response being measured. Higher therefore signals a need for much substance. The inhibition is the percentage by which the read-out fell short of the control.

In experiment [1], `CNC(=O)CC1(CNc2ncnc(N(Cc3ccc(C(F)(F)F)cc3)C3CC3)c2F)CCOCC1` [Example A80, 2-[4-[[[6-[cyclopropyl-[[4-(trifluoromethyl)phenyl]methyl]amino]-5-fluoro-pyrimidin-4-yl]amino]methyl]tetrahydropyran-4-yl]-N-methyl-acetamide] returned an IC50 of less than 500 nM. In experiment [2], the inhibition at 1 µM is more than 80% and the “Gal4 activity range @ 0.1 μM (% inhibition)” value is on record as more than 20 % inhibition.

Regarding `CC(c1ccc(C(F)(F)F)cn1)N(c1ncnc(NCc2ccc(CC(N)=O)cc2)c1F)C1CC1` (stereo not drawn) [Example A104, 2-[4-[[[6-[cyclopropyl-[1-[5-(trifluoromethyl)-2-pyridyl]ethyl]amino]-5-fluoro-pyrimidin-4-yl]amino]methyl]phenyl]acetamide], in experiment [1], the IC50 was less than 1000 nM. Further, in experiment [2], the inhibition at 1 µM is more than 80% and the “Gal4 activity range @ 0.1 μM (% inhibition)” value is listed as more than 50 % inhibition.

Consider `NC(=O)Cc1ccc(CNc2ncnc(N(Cc3ccc(C(F)(F)F)nc3)C3CC3)c2F)cc1` [Example A83, 2-[4-[[[6-[cyclopropyl-[[6-(trifluoromethyl)-3-pyridyl]methyl]amino]-5-fluoro-pyrimidin-4-yl]amino]methyl]phenyl]acetamide], for which, in experiment [1], the 50% inhibitory concentration (IC50) is less than 500 nM. Moreover, in experiment [2], the inhibition at 1 µM was more than 80% and the “Gal4 activity range @ 0.1 μM (% inhibition)” value is listed as more than 50 % inhibition.

`O=S(=O)(N[C@H]1CC[C@H](CNc2ncnc(N(Cc3ccc(C(F)(F)F)cc3)C3CC3)c2F)CC1)C(F)(F)F` [Example A57, N-[4-[[[6-[cyclopropyl-[[4-(trifluoromethyl)phenyl]methyl]amino]-5-fluoro-pyrimidin-4-yl]amino]methyl]cyclohexyl]-1,1,1-trifluoro-methanesulfonamide] returned an IC50 in experiment [1] of less than 500 nM. Also, in experiment [2], the inhibition at 1 µM is more than 80% and the “Gal4 activity range @ 0.1 μM (% inhibition)” value is reported as more than 50 % inhibition.

As to `Fc1c(NC[C@H]2CC[C@H](Cc3nnn[nH]3)CC2)ncnc1N(Cc1ccc(C(F)(F)F)cc1)C1CC1` [Example A61, N4-cyclopropyl-5-fluoro-N6-[[4-(1H-tetrazol-5-ylmethyl)cyclohexyl]methyl]-N4-[[4-(trifluoromethyl)phenyl]methyl] pyrimidine-4,6-diamine], the IC50 in experiment [1] is less than 500 nM. Also, in experiment [2], the inhibition at 1 µM was more than 80% and the “Gal4 activity range @ 0.1 μM (% inhibition)” value was more than 20 % inhibition.

For the compound `NC(=O)Cc1ccc(CNc2ncnc(N(Cc3ccc(C(F)F)nc3)C3CC3)c2F)cc1` [Example A179, 2-[4-[[[6-[cyclopropyl-[[6-(difluoromethyl)-3-pyridyl]methyl]amino]-5-fluoro-pyrimidin-4-yl]amino]methyl]phenyl]acetamide], the IC50 in experiment [1] was less than 500 nM. Besides, in experiment [2], the inhibition at 1 µM is more than 80% and the “Gal4 activity range @ 0.1 μM (% inhibition)” value is listed as more than 20 % inhibition.

`NC(=O)Cc1ccc(Cn2ccc3c(N(Cc4ccc(C(F)(F)F)cc4)C4CC4)ncnc32)cc1` [Example I1, 2-(4-((4-(cyclopropyl (4-(trifluoromethyl)benzyl)amino)-7H-pyrrolo[2,3-d]pyrimidin-7-yl)methyl)phenyl)acetamide] yielded an IC50 in experiment [1] of less than 500 nM. Besides, in experiment [2], the inhibition at 1 µM is more than 80% and the “Gal4 activity range @ 0.1 μM (% inhibition)” value is recorded as more than 80 % inhibition.

As for `NC(=O)Cc1ccc(CNc2ncnc(N(C3CC3)C(c3ccc(C(F)(F)F)cc3)C3CC3)c2F)cc1` (stereo not drawn) [Example A13, 2-[4-[[[6-[cyclopropyl-[cyclopropyl-[4-(trifluoromethyl)phenyl]methyl]amino]-5-fluoro-pyrimidin-4-yl]amino]methyl]phenyl]acetamide], the IC50 in experiment [1] was less than 500 nM. In addition, in experiment [2], the inhibition at 1 µM was more than 80% and the “Gal4 activity range @ 0.1 μM (% inhibition)” value is reported as more than 20 % inhibition.

The values above are taken from patent US10683293B2, “Optionally fused heterocyclyl-substituted derivatives of pyrimidine useful for the treatment of inflammatory, metabolic, oncologic and autoimmune diseases” (NUEVOLUTION A/S, priority 2014, dated 2020).
